Consider one compound from patent US20220349875A1, “METHOD TO INDEPENDENTLY ANALYZE MULTIPLE BIOLOGICAL PROCESSES IN ENCAPSULATED 3D CELL CO-CULTURES” (UNIVERSITÉ DE GENÈVE, priority 2019, published 2022).

Experiment [1] relates to BC cells stably expressing the reporter zipGFP-Casp3. The experiment is described as follows: Apoptosis of encapsulated BC cells (zipGFP-Casp3 reporter), monoculture or multi-culture with LC cells. It is filed as cell-based. The settings on record: micromolar Tamoxifen (1 μM to 10 μM), 96 hours, with vs without LC cells; FIG. 4.
Method: Image acquisition was performed with an automated confocal microscope. Cell segmentation and quantification of cell fluorescence intensities were performed with the software MetaXpress (Molecular Devices). For the quantification of apoptosis, cell fluorescence intensities from far-red-labelled capsules were measured and the green fluorescence was normalized with the red fluorescence. […] Data is representative of 3 independent replicates.
Dispense capsules in wells of a 96-well imaging quality plate by continuously pipetting up and down to maintain the capsules in suspension before transferring the proper volume into the well.
Half of wells are not filled with LC capsules (conditions with BC cells only)
Incubate the plate at 37° C. for 96 hours.
The test system of experiment [2] is BC cells stably expressing the dual-reporter FUCCI. The experiment is described as follows: Proliferation of encapsulated BC cells (FUCCI dual reporter), monoculture or multi-culture with LC cells. It is filed as cell-based. Particulars: micromolar Tamoxifen (1 μM to 10 μM), 96 hours; FIG. 5. The text has this:
LC cells were encapsulated in green-labelled alginate capsules, BC cells stably expressing the dual reporter gene FUCCI (active proliferating cells are green, not-proliferating cells (latent) are red) were encapsulated in unlabelled alginate capsules, and BC cells stably expressing the reporter gene zipGFP-Casp3 (all cells are red (reporter expression control) and cells become green upon apoptosis induction) were encapsulated in far-red-labelled alginate capsules. […] Image acquisition was performed with an automated confocal microscope. Cell segmentation and quantification of cell fluorescence intensities were performed with the software MetaXpress (Molecular Devices). For the quantification of proliferation, cell fluorescence intensities from unlabelled capsules were measured. […] Data is representative of 3 independent replicates.
Induction of apoptosis is measured by automated confocal microscopy (HCS) in BC cells stably expressing the reporter zipGFP-Casp3 and proliferation is measured at the same time in BC cells stably expressing the dual-reporter FUCCI. […]

For the compound `CC/C(=C(\c1ccccc1)c1ccc(OCCN(C)C)cc1)c1ccccc1` [Tamoxifen], in experiment [1], the “induction of apoptosis in BC cells” value is recorded as “increased by Tamoxifen in a dose-dependent manner only in co-culture with LC cells”. Besides, the cell proliferation inhibition result in experiment [2] was “already maximal at 1 μM”.
